This passage reports MIC results from US20250326713A1, “INHIBITORS OF MsbA AS ANTIBIOTICS, PHARMACEUTICAL COMPOSITIONS, AND USES THEREOF” (priority 2022, published 2025).

Converted amounts (≈) assume the structure as drawn.

One assay deals with various strains of bacteria. Put plainly: Antimicrobial potency: bacterial growth inhibition by OD600 (Antibacterial assay 1, MITC95). The class given is cell-based, A. baumannii. Conditions: Acinetobacter baumannii, 20 h, lowest concentration giving >95% growth inhibition, CAMHB, 18-22 h. How it is done:
The concentrations of compounds required to inhibit the growth of various strains of bacteria were determined in an assay that assessed bacterial growth by measuring optical density at 600 nm (OD600). Test articles were dissolved in 100% DMSO and serially diluted two-fold from their maximal concentration in 100% DMSO. Forty-nine μl of bacterial inoculum (at approx. 2×10^5 cfu/mL in CAMHB) were put into wells of an assay plate. One μl of compound or DMSO was transferred from the source plate to the assay plate. The completed assay plates were then incubated at 35+2degC for 18-22 h. Bacterial growth was measured by reading OD600 on a spectrophotometer. Data analysis calculates the lowest concentration of compound which results in >95% growth inhibition (minimum inhibitory threshold concentration 95%, MITC95).
`O=C(O)c1cc(CN2CC(Oc3ccc(NS(=O)(=O)N4CCOC(c5ccc(F)cc5)C4)c(C(=O)O)c3)C2)ccc1NS(=O)(=O)N1CCOC(c2ccc(F)cc2)C1` (centres unmarked) [Compound 44, 5-((1-(3-carboxy-4-((2-(4-fluorophenyl)morpholine)-4-sulfonamido)benzyl)azetidin-3-yl)oxy)-2-((2-(4-fluorophenyl)morpholine)-4-sulfonamido)benzoic acid] had an MIC of 0.391 µM (≈ 0.33 µg/mL).
The same measure, in the same setting: the figure for `CC1(Oc2ccc(NS(=O)(=O)N3CCOC(c4ccc(F)cc4)C3)c(C(=O)O)c2)CN(Cc2ccc(NS(=O)(=O)N3CCOC(c4ccc(F)cc4)C3)c(C(=O)O)c2)C1` (centres unmarked) [Compound 45] is 0.0978 µM (≈ 0.0839 µg/mL); for `CC1(Oc2ccc(NS(=O)(=O)N3CCOC(c4ccc(Cl)cc4)C3)c(C(=O)O)c2)CN(Cc2ccc(NS(=O)(=O)N3CCOC(c4ccc(Cl)cc4)C3)c(C(=O)O)c2)C1` (centres unmarked) [Compound 46] it is 0.391 µM (≈ 0.348 µg/mL).
`O=C(O)c1cc(OC2CN(Cc3ccc(NS(=O)(=O)N4CCOC(c5ccc(F)cc5)C4)c(C(=O)O)c3)C2)ccc1NS(=O)(=O)N1CCOC(CCO)C1` (centres unmarked) [Compound 47] showed an MIC of 1.57 µM (≈ 1.25 µg/mL).
Turning to `O=C(O)c1cc(CN[C@H]2C[C@@H](NCc3ccc(NS(=O)(=O)c4cnn(-c5ccc(Cl)cc5)c4)c(C(=O)O)c3)C2)ccc1NS(=O)(=O)c1cnn(-c2ccc(Cl)cc2)c1` [Compound 48, 5-((((1s, 3s)-3-((3-carboxy-4-((1-(4-chlorophenyl)-1H-pyrazole)-4-sulfonamido)benzyl)amino)cyclobutyl)amino)methyl)-2-((1-(4-chlorophenyl)-1H-pyrazole)-4-sulfonamido)benzoic acid], the MIC stood at 0.321 µM (≈ 0.278 µg/mL).
`O=C(O)c1cc(CN[C@H]2C[C@@H](NCc3ccc(NS(=O)(=O)c4cnn(-c5ccc(F)cc5)c4)c(C(=O)O)c3)C2)ccc1NS(=O)(=O)c1cnn(-c2ccc(F)cc2)c1` [Compound 49]: the MIC worked out at 1.56 µM (≈ 1.3 µg/mL).
Consider `O=C(O)c1cc(CNC23CCC(NCc4ccc(NS(=O)(=O)c5cnn(-c6ccc(Cl)cc6)c5)c(C(=O)O)c4)(C2)C3)ccc1NS(=O)(=O)c1cnn(-c2ccc(Cl)cc2)c1` [Compound 50], for which the MIC was found to be 0.391 µM (≈ 0.349 µg/mL). Against the preceding compound, the MIC is about 4-fold lower.
`C[C@]1(NCc2ccc(NS(=O)(=O)c3cnn(-c4ccc(Cl)cc4)c3)c(C(=O)O)c2)C[C@@H](NCc2ccc(NS(=O)(=O)c3cnn(-c4ccc(Cl)cc4)c3)c(C(=O)O)c2)C1` [Compound 51]: the MIC was determined as 3.13 µM (≈ 2.75 µg/mL).
The same measure, in the same setting: the figure for `CS(=O)(=O)NC(=O)c1cc(OC2CN(Cc3ccc(NS(=O)(=O)c4cnn(-c5ccc(F)cc5)c4)c(C(=O)O)c3)C2)ccc1NS(=O)(=O)c1cnn(-c2ccc(F)cc2)c1` [Compound 52, 2-((1-(4-fluorophenyl)-1H-pyrazole)-4-sulfonamido)-5-((3-(4-((1-(4-fluorophenyl)-1H-pyrazole)-4-sulfonamido)-3-((methylsulfonyl)carbamoyl)phenoxy)azetidin-1-yl)methyl)benzoic acid] is 0.553 µM (≈ 0.488 µg/mL).
As for `O=C(NCc1ccc(Cl)cc1)C(=O)Nc1ccc(OC2CN(Cc3ccc(NS(=O)(=O)c4ccc(-c5ccc(Cl)cc5)cc4)c(C(=O)O)c3)C2)cc1C(=O)O` [Compound 54, 5-((1-(3-carboxy-4-((4′-chloro-[1,1′-biphenyl])-4-sulfonamido)benzyl)azetidin-3-yl)oxy)-2-(2-((4-chlorobenzyl)amino)-2-oxoacetamido)benzoic acid], the MIC was determined as 0.0346 µM (≈ 0.0278 µg/mL).
Compound `O=C(NCc1ccc(Cl)cc1)C(=O)Nc1ccc(CN2CC(Oc3ccc(NS(=O)(=O)N4CCOC(c5ccc(F)cc5)C4)c(C(=O)O)c3)C2)cc1C(=O)O` (centres unmarked) [Compound 56] gave a minimal inhibitory concentration (MIC) of 0.0978 µM (≈ 0.0779 µg/mL).
`O=C(NCc1ccc(Cl)cc1)C(=O)Nc1ccc(OC2CN(Cc3ccc(NS(=O)(=O)c4cnn(-c5ccc(Cl)cc5)c4)c(C(=O)O)c3)C2)cc1C(=O)O` [Compound 58] registered an MIC of 0.0245 µM (≈ 0.0194 µg/mL). This MIC is about 4-fold lower than that of the compound before.
With `O=C(NCc1ccc(Cl)cc1)C(=O)Nc1ccc(OC2CN(Cc3ccc(NS(=O)(=O)c4cc(-c5ccc(F)cc5)ns4)c(C(=O)O)c3)C2)cc1C(=O)O` [Compound 59], the MIC was found to be 0.0245 µM (≈ 0.0195 µg/mL).
Take `O=C(NCc1ccc(Cl)cc1)C(=O)Nc1ccc(OC2CN(Cc3ccc(NS(=O)(=O)N4CCOC(c5ccc(Cl)cc5)C4)c(C(=O)O)c3)C2)cc1C(=O)O` (centres unmarked) [Compound 60]: the minimal inhibitory concentration (MIC) amounted to 0.0122 µM (≈ 0.00991 µg/mL).
The compound `O=C(NCc1ccc(Cl)cc1)C(=O)Nc1ccc(OC2CN(Cc3ccc(NS(=O)(=O)CCc4ccc(Cl)cc4)c(C(=O)O)c3)C2)cc1C(=O)O` [Compound 61] came in with an MIC of 0.196 µM (≈ 0.148 µg/mL).
Take `O=C(NCc1ccccc1)C(=O)Nc1ccc(OC2CN(Cc3ccc(NS(=O)(=O)c4ccc(-c5ccc(Cl)cc5)cc4)c(C(=O)O)c3)C2)cc1C(=O)O` [Compound 62]: the minimal inhibitory concentration (MIC) is under 0.0488 µM.
Compound `O=C(NCc1cccc(Cl)c1)C(=O)Nc1ccc(OC2CN(Cc3ccc(NS(=O)(=O)c4ccc(-c5ccc(Cl)cc5)cc4)c(C(=O)O)c3)C2)cc1C(=O)O` [Compound 63] returned an MIC of 0.196 µM (≈ 0.158 µg/mL).
Still for that read-out and setting: the figure for `O=C(CCc1ccc(Cl)cc1)Nc1ccc(OC2CN(Cc3ccc(NS(=O)(=O)c4cnn(-c5ccc(Cl)cc5)c4)c(C(=O)O)c3)C2)cc1C(=O)O` [Compound 65, 5-((1-(3-carboxy-4-((1-(4-chlorophenyl)-1H-pyrazole)-4-sulfonamido)-benzyl)azetidin-3-yl)oxy)-2-(3-(4-chlorophenyl)propanamido)benzoic acid] is 0.0489 µM (≈ 0.0374 µg/mL).
On the same count and under the same terms, the figure for `O=C(CCCCCc1ccccc1)Nc1ccc(OC2CN(Cc3ccc(NS(=O)(=O)c4cnn(-c5ccc(Cl)cc5)c4)c(C(=O)O)c3)C2)cc1C(=O)O` [Compound 66] is 0.0489 µM (≈ 0.0378 µg/mL).
The compound `O=C(Cc1cccc(Cl)c1)Nc1ccc(OC2CN(Cc3ccc(NS(=O)(=O)c4cc(-c5ccc(F)cc5)ns4)c(C(=O)O)c3)C2)cc1C(=O)O` [Compound 67] came in with a minimal inhibitory concentration (MIC) of 0.0245 µM (≈ 0.0184 µg/mL).
Compound `O=C(CCCc1ccc(Cl)cc1)Nc1ccc(OC2CN(Cc3ccc(NS(=O)(=O)c4cnn(-c5ccc(Cl)cc5)c4)c(C(=O)O)c3)C2)cc1C(=O)O` [Compound 69] showed a minimal inhibitory concentration (MIC) of 0.0245 µM (≈ 0.0191 µg/mL).
`O=C(CCc1ccc(Cl)c(Cl)c1)Nc1ccc(OC2CN(Cc3ccc(NS(=O)(=O)c4cnn(-c5ccc(Cl)cc5)c4)c(C(=O)O)c3)C2)cc1C(=O)O` [Compound 71] yielded an MIC of 0.0978 µM (≈ 0.0782 µg/mL).
`O=C(CCCc1ccccc1)Nc1ccc(OC2CN(Cc3ccc(NS(=O)(=O)c4cnn(-c5ccc(Cl)cc5)c4)c(C(=O)O)c3)C2)cc1C(=O)O` [Compound 72] yielded an MIC of 0.0978 µM (≈ 0.0728 µg/mL). That is a double-digit nanomolar value.
Compound `O=C(Cc1cccc(Cl)c1)Nc1ccc(OC2CN(Cc3ccc(NS(=O)(=O)c4cnn(-c5ccc(Cl)cc5)c4)c(C(=O)O)c3)C2)cc1C(=O)O` [Compound 73] registered an MIC of 0.196 µM (≈ 0.147 µg/mL).
Compound `O=C(CCCCC(c1ccccc1)c1ccccc1)Nc1ccc(OC2CN(Cc3ccc(NS(=O)(=O)c4cnn(-c5ccc(Cl)cc5)c4)c(C(=O)O)c3)C2)cc1C(=O)O` [Compound 74] displayed a minimal inhibitory concentration (MIC) of 0.31 µM (≈ 0.263 µg/mL).
Compound `O=C(CCCC(=O)c1ccc(F)cc1)Nc1ccc(OC2CN(Cc3ccc(NS(=O)(=O)c4cnn(-c5ccc(Cl)cc5)c4)c(C(=O)O)c3)C2)cc1C(=O)O` [Compound 75] showed an MIC of 0.277 µM (≈ 0.219 µg/mL).
For the compound `O=C(O)c1cc(CN2CC(Oc3ccc(NS(=O)(=O)CCc4ccc(F)cc4)c(C(=O)O)c3)C2)ccc1NS(=O)(=O)CCc1ccc(F)cc1` [Compound 78, 5-((1-(3-carboxy-4-((2-(4-fluorophenyl)ethyl)sulfonamido)benzyl)azetidin-3-yl)oxy)-2-((2-(4-fluorophenyl)ethyl)sulfonamido)benzoic acid], the MIC worked out at 0.782 µM (≈ 0.571 µg/mL).
Consider `O=C(O)c1cc(CN2CC(Oc3ccc(NS(=O)(=O)CCc4ccc(Cl)cc4)c(C(=O)O)c3)C2)ccc1NS(=O)(=O)CCc1ccc(Cl)cc1` [Compound 79], for which the MIC was 0.0978 µM (≈ 0.0746 µg/mL).
Compound `O=C(O)c1cc(CN2CC(Oc3ccc(NS(=O)(=O)N4CC(Oc5ccc(F)cc5)C4)c(C(=O)O)c3)C2)ccc1NS(=O)(=O)N1CC(Oc2ccc(F)cc2)C1` [Compound 80, 5-((1-(3-carboxy-4-((3-(4-fluorophenoxy)azetidine)-1-sulfonamido)benzyl)azetidin-3-yl)oxy)-2-((3-(4-fluorophenoxy)azetidine)-1-sulfonamido)benzoic acid] registered an MIC of 0.0122 µM (≈ 0.00995 µg/mL).
`O=C(O)c1cc(OC2CN(Cc3ccc(NS(=O)(=O)c4cnn(-c5ccc(Cl)cc5)c4)c(C(=O)O)c3)C2)ccc1NS(=O)(=O)CCc1ccc(F)cc1` [Compound 82] returned a minimal inhibitory concentration (MIC) of 0.0346 µM (≈ 0.0271 µg/mL).
On the same count and under the same terms, the value for `O=C(O)c1cc(OC2CN(Cc3ccc(NS(=O)(=O)c4ccc(-c5ccc(F)cc5)cc4)c(C(=O)O)c3)C2)ccc1NS(=O)(=O)CCc1ccc(F)cc1` [Compound 83] was 0.0346 µM (≈ 0.0269 µg/mL).
Compound `O=C(O)c1cc(OC2CN(Cc3ccc(NS(=O)(=O)N4CCOC(c5ccc(F)cc5)C4)c(C(=O)O)c3)C2)ccc1NS(=O)(=O)CCc1ccc(F)cc1` (centres unmarked) [Compound 84] showed an MIC of 0.0691 µM (≈ 0.0544 µg/mL).
In turn, `O=C(O)c1cc(OC2CN(Cc3ccc(NS(=O)(=O)c4cnc(-c5ccc(Cl)cc5)s4)c(C(=O)O)c3)C2)ccc1NS(=O)(=O)CCc1ccc(F)cc1` [Compound 85] came in with an MIC of 0.0173 µM (≈ 0.0139 µg/mL). This MIC is about 4-fold lower than that of the compound before.
Same read-out and setting: the value for `O=C(O)c1cc(OC2CN(Cc3ccc(NS(=O)(=O)c4ccc(-c5ccccc5)s4)c(C(=O)O)c3)C2)ccc1NS(=O)(=O)CCc1ccc(F)cc1` [Compound 86] was 0.0245 µM (≈ 0.0188 µg/mL).

Staying with this assay, now noted: lowest concentration giving >95% growth inhibition, CAMHB, 18-22 h.
In turn, `O=C(O)c1cc(OC2CN(Cc3ccc(NS(=O)(=O)c4ccc(-c5ccc(Cl)cc5)cc4)c(C(=O)O)c3)C2)ccc1NS(=O)(=O)CCc1ccc(F)cc1` [Compound 81, 5-((3-(3-carboxy-4-((2-(4-fluorophenyl)ethyl)sulfonamido)phenoxy)azetidin-1-yl)methyl)-2-((4′-chloro-[1, l′-biphenyl])-4-sulfonamido)benzoic acid] yielded an MIC of 0.0122 µM (≈ 0.00969 µg/mL).

The MIC is the smallest concentration in the dilution series that meets the test's criterion for growth inhibition. Low values mean a more susceptible organism, high ones a less susceptible organism.
